One molecule from patent US5912235A, “10, 13, 15-trioxatricyclo [9.2.1.1.^9.6 ]-pentadecan one derivatives, method for their production and pharmaceutical compositions containing them” (Solvay Pharmaceuticals GmbH, priority 1996, dated 1999) can be followed below.

One assay concerns the target T1, motilin receptors (Oryctolagus cuniculus, UniProt G1T803).
T1 construct: fraction of a tissue homogenate from rabbit antrum; from tissue; host or cells: rabbit antrum, mucosa removed, crude membrane preparation
Put plainly: Determination of the binding capacity of the test substances to motilin receptors (displacement of 125-iodine-labelled motilin, crude membrane preparation from rabbit antrum). The following applies: tissue homogenate fraction from rabbit antrum; iodinated motilin 50 pM; 30° C., 60 min; read-out: pIC50 value (50% inhibition of the specific binding of the iodinated motilin to the motilin receptors) (converted). On the procedure:
1. Determination of the binding capacity of the test substances to motilin receptors.
The affinity of the compounds of Formula I for motilin receptors is measured in vitro on a fraction of a tissue homogenate from rabbit antrum. The displacement of radioactively labelled iodinated motilin from motilin receptor binding by the test substances is determined.
The receptor binding studies are carried out by a modification of the method of Borman et al. (Regulatory Peptides, 15:143-153 (1986). To prepare the ^125 iodine-labelled motilin, motilin is iodinated enzymatically using lactoperoxidase in known manner, for example in analogy to the method described by Bloom et al., Scand. J. Gastroenterol.,11:47-52 (1976). […]
For the binding test, 200 μl of the crude membrane fraction (0.5-1 mg of protein) in 400 μl of a buffer solution A (50 mM tris-HCl buffer, 1.5% BSA, 10 mM MgCl2, pH 8.0) are incubated with 100 μl of iodinated motilin diluted in buffer solution B (10 mM tris-HCl buffer, 1% BSA, pH 8) (final concentration 50 pM) at 30° C. for 60 min. […] The residue obtained as pellet after the centrifugation is washed with buffer solution B and counted in a gamma counter. […] From this the corresponding pIC50 value is calculated.

The test system of a further assay is stomach tone. The assay can be described thus: In vivo determination of the effect of the substances on the stomach tone (barostat, stomach volume at constant pressure after lipid intake). The following applies: beagles; maximum tolerable dose; stomach volume measured at constant pressure with barostat. On the procedure:
2. In vivo determination of the effect of the substances on the stomach tone.
The stomach tone plays an important role in gastric emptying. An increased stomach tone contributes to an increased rate of gastric emptying.
The influence of substances on the stomach tone is determined on beagles with the aid of a barostat which is connected to a plastic pouch in the stomach of the dog and permits measurement of volume or pressure in the stomach of the dog. With the barostat, the stomach volume is determined at a constant pressure in the stomach or the stomach pressure is determined at a constant volume in the stomach. When the stomach tone increases, a reduced stomach volume is detected at a given pressure, and an increased pressure at a given volume. In the test model used to investigate the increase in stomach tone effected by the substances, the change in stomach volume caused by the substances is measured at constant pressure. The stomach of the test animals is relaxed by intake of lipids, i.e. the stomach tone decreases, which causes the stomach volume to increase correspondingly. The reduction in % of the stomach volume which has been increased by administration of lipids which occurs after intake of the substance due to a re-increase in stomach tone is measured as a measurement of the stomach tone-increasing action of the substances.

T1 sequence (G1T803 1-400): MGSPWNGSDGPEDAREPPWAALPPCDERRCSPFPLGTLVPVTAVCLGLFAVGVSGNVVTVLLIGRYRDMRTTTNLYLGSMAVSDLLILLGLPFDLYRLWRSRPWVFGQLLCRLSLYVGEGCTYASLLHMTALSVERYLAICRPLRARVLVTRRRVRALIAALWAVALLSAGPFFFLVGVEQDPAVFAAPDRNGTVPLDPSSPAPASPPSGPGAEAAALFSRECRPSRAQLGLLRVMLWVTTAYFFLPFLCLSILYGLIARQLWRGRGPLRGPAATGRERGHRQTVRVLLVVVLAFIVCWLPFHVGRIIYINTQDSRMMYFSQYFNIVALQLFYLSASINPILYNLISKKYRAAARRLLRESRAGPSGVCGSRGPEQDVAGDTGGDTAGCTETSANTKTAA

As for `CC[C@@H](O)[C@@]1(C)O[C@]23O[C@](C)(CC2C)[C@H](O[C@@H]2O[C@H](C)C[C@H](N(C)C(C)C)[C@H]2O)[C@@H](C)[C@H](O[C@H]2C[C@@](C)(OC)[C@@H](O)[C@H](C)O2)[C@@H](C)C(=O)O[C@@H]1[C@H]3C` (stereo partly drawn) [Example 1, [(1'R),2R,3S,4S,5R,6R,9R,11R,12R,14R]-11-(1'-hydroxypropyl)-3-[(2,6-dideoxy-3-C-methyl-3-0-methyl-α-L-ribohexopyranosyl)-oxy]-5-[(3,4,6-trideoxy-3-(N-methyl-N-isopropylamino)-β-D-xylo-hexopyranosyl)-oxy]-2,4,6,8,11,14-hexamethyl-10,13,15-trioxatricyclo[9.2.1.1^9.6]-pentadecan-1-one], at motilin receptors, the IC50 was 14.1 nM. Besides, the “reduction in the stomach volume increased after lipid administration” value with stomach tone was found to be 69%.
